{"source": "paper PMC11500415", "about": "“Chemical inhibition of stomatal differentiation by perturbation of the master-regulatory bHLH heterodimer via an ACT-Like domain” (Nature Communications, 2024)", "key": {"[1]": {"target": "T1, SPCH (Arabidopsis thaliana, UniProt Q700C7)", "T1 construct": "ΔNSPCH (98-364); made in house; host or cells: E. coli BL21", "T1 sequence (Q700C7 98-364)": "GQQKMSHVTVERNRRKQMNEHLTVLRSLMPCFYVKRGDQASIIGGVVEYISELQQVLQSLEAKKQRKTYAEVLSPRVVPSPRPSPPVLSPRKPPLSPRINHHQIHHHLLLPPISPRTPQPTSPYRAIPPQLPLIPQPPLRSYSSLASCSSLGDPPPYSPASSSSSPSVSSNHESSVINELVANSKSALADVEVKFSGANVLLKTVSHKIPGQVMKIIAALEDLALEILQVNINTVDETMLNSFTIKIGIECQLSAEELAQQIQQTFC", "test": "BLI direct binding", "parameters": "species or system A. thaliana", "excerpt": "A. thaliana SCRM (1-494), ΔNSPCH (98-364), MUTE (1-202), ΔNFAMA (190-414), MUTEΔC (1-114), MUTER133A_R134A, MUTEE162A_E163A, MUTER133A_R134A_E162A_E163A, SCRM-ACTL (405-494), MUTE-ACTL (114-202), SPCH-ACTL (285-364), FAMA-ACTL (306-414), MUTE_ACTLR133A_R134A, MUTE_ACTLE162A_E163A, MUTE_ACTLR133A_R134A_E162A_E163A were cloned into pGEX-4T-1 vector with an N-terminal GST tag and a thrombin cleavage sequence. For protein expression, the constructs were transformed into E. coli strain BL21. For each transformant, a single colony was selected and incubated in 10 ml LB liquid media. The overnight-incubated E. coli suspensions were transferred to 1 L LB medium and incubated at 37 °C for around 2 h until the OD600 reached 0.4–0.6. The isopropyl β-D-1-thiogalactopyranoside ([…] of final concentration) was added to the cultures and the strains were incubated at 22 °C for a further 18 h. GST-fused proteins were purified using glutathione agarose resin. The soluble portion of the cell lysate was loaded onto a GST-Sepharose column. Nonspecifically bound proteins were removed by washing the column with 20 mM Tris pH 8.0, 200 mM NaCl. The bound GST-fused protein was eluted with 10 mm glutathione and 20 mM Tris pH 8.0, 200 mM NaCl. The GST-fused proteins were exchanged with phosphate-buffered saline buffer, and then the solution was treated with 50 μg of thrombin for 10–12 h at 16 ^οC. The GST portion of the protein was cleaved during thrombin digestion, and then the whole solution was reloaded onto the glutathione S-transferase column to obtain pure protein. The purified proteins were further purified by gel filtration on a Superdex-200 (GE) column using fast protein liquid chromatography and phosphate buffer (pH 7.2) as the eluent. The purity of the protein was checked by SDS-PAGE. For detailed lists of oligo DNA and plasmid information, see Supplementary Tables 5, 6, respectively.\nThe binding affinities of SCRM to MUTE / MUTER133A_R134A / MUTEE162A_E163A / MUTER133A_R134A_E162A_E163A in presence and absence of Stomidazolone (3) and its analogues (AYSJ1059 (5) and AYSJ1061 (6)), and Stomidazolone / AYSJ1059 / AYSJ1061 interactions with GST-tagged SCRM, MUTE, SPCH, FAMA, MUTE ΔACTL, MUTE_ACTL, SCRM_ACTL, SPCH_ACTL and FAMA_ACTL, MUTER133A_134A, MUTEE162A_E163A, MUTER133A_R134A_E162A_E163A were measured using the Octet Red96 system (ForteBio, Pall Life Sciences) following the manufacturer’s protocols. The optical probes coated with anti-GST were first loaded with 500 nM GST tagged proteins before kinetic binding analyses. The experiment was performed in 96-well plates maintained at 30 °C. Each well was loaded with 200 μL reaction volume for the experiment. The binding buffer used in these experiments contained 1× PBS supplemented with 2% DMSO, 0.02% Tween20. […] There was no binding of the analytes to the unloaded probes as shown by the control wells. Binding kinetics to all seven concentrations of the analytes were measured simultaneously using default parameters on the instrument. The data were analyzed using the Octet data analysis software. The association and dissociation curves were fit with the 1:1 homogeneous ligand model. The kobs (observed rate constant) values were used to calculate Kd, with steady-state analysis of the direct binding. See Supplementary Table 3 for details."}, "[2]": {"test": "Stability in aqueous conditions by LC/MS", "assay_type": "physicochemical", "description": "Next, to directly address the stability of Stomidazolone in the aqueous condition we used for our bioassays, we performed liquid chromatography-mass spectrometry (LC/MS) (Supplementary Fig. 4). Stomidazolone was incubated in the 1/2 MS liquid medium (pH 5.7) at room temperature for 48 hours. […] Additionally, we tested Stomidazolone’s stability in phosphate buffer (pH 7.0).\nStomidazolone in 1/2 MS liquid media (pH 5.7) or phosphate buffer (pH 7.0) was detected by LC (Agilent 1200, Agilent Technologies, Santa Clara, USA) coupled to a single quadrupole mass spectrometer (Agilent 6130) equipped with an APCI-ES source. For the stability assay of Stomidazolone, the analytical samples were prepared as follows: 100 μL 5 mM Stomidazolone in DMSO was diluted with 900 μL 1/2MS (pH5.7) or 50 mM Phosphate buffer (pH 7.0). The Stomidazolone solutions were incubated at room temperature with rotating. At 0 or 48 hr after incubation, the 10 μL of solution were collected, diluted with water: acetonitrile;= 50:50, and applied to LC/MS. […] The mobile phase consisted of 5 mM ammonium formate: acetonitrile = 80:20 at a flow rate of 0.6 mL/min. in isocratic mode, and detected by mass spectrometry (MS). […] The electrospray ionization mass spectra (ESI-MS) recorded in the mass-to-charge ratio range from m/z 80–1000 was collected. […]"}, "[3]": {"settings": "SPCH, Conc. (µM) 3.12, rep-1, rep-2"}, "[4]": {"settings": "SPCH, Conc. (µM) 6.25, rep-1, rep-2"}, "[5]": {"settings": "SPCH, Conc. (µM) 12.5, rep-1, rep-2"}, "[6]": {"settings": "SPCH, Conc. (µM) 50, rep-1, rep-2"}, "[7]": {"settings": "SPCH, Conc. (µM) 100, rep-1, rep-2"}, "[8]": {"settings": "SPCH, Conc. (µM) 200, rep-1, rep-2"}}, "note": "Several values for one entry are separate records, joined by “and”; a condition that tells them apart may be missing. Equal values may be shown once. Read-outs that look alike come from different tables or passages of the source."}
{"smiles": "O=C1C(c2ccccc2)=NC(NS(=O)(=O)c2ccccc2)(c2ccccc2)N1S(=O)(=O)c1ccccc1", "note": "(stereo not shown) [Stomidazolone]", "values": [{"measurement": "Kd", "setting": "[1]; BLI steady state, SPCH, read-out: KD (SS)", "result": "85.2 ± 6.8", "unit": "µM"}, {"measurement": "Kd", "setting": "[1]; BLI, SPCH, read-out: KD", "result": "75.6 ± 0.7", "unit": "µM"}, {"measurement": "kdis", "setting": "[1]; SPCH loaded on Anti-GST sensor, fit per sensor, Stomid Conc. (mM) 200-3.12, rep-1, rep-2", "result": "0.319 s⁻¹ and 0.323 s⁻¹ and 0.32 s⁻¹ and 0.325 s⁻¹ and 0.33 s⁻¹ and 0.326 s⁻¹"}, {"measurement": "kon", "setting": "[1]; SPCH loaded on Anti-GST sensor, fit per sensor, Stomid Conc. (µM) 200-3.12, rep-1, rep-2", "result": "4280 M⁻¹ s⁻¹ and 4310 M⁻¹ s⁻¹ and 4320 M⁻¹ s⁻¹ and 4400 M⁻¹ s⁻¹ and 4290 M⁻¹ s⁻¹ and 4340 M⁻¹ s⁻¹ and 4360 M⁻¹ s⁻¹"}, {"measurement": "Kd", "setting": "[1]; SPCH loaded on Anti-GST sensor, fit per sensor, Stomid Conc. (µM) 200-3.12, rep-1, rep-2, read-out: KD", "result": "75.4 µM and 76.8 µM and 74.1 µM and 73.1 µM and 74.8 µM and 72.6 µM and 75.2 µM and 76.7 µM and 76.9 µM and 74.4 µM"}, {"measurement": "RMax", "setting": "[1]; [3]", "result": "0.03 and 0.0213"}, {"measurement": "Req/Rmax(%)", "setting": "[1]; [3]", "result": 100, "unit": "%"}, {"measurement": "Response", "setting": "[1]; [3]", "result": "0.0312 and 0.0213"}, {"measurement": "RMax", "setting": "[1]; [4]", "result": "0.062 and 0.0321"}, {"measurement": "Req/Rmax(%)", "setting": "[1]; [4]", "result": "97% and 100%"}, {"measurement": "Response", "setting": "[1]; [4]", "result": "0.0608 and 0.0321"}, {"measurement": "RMax", "setting": "[1]; [5]", "result": "0.067 and 0.0781"}, {"measurement": "Response", "setting": "[1]; [5]", "result": "0.065 and 0.0781"}, {"measurement": "RMax", "setting": "[1]; [6]", "result": "0.135 and 0.1621"}, {"measurement": "Req/Rmax(%)", "setting": "[1]; [6]", "result": 89, "unit": "%"}, {"measurement": "Response", "setting": "[1]; [6]", "result": "0.1334 and 0.1621"}, {"measurement": "RMax", "setting": "[1]; [7]", "result": "0.235 and 0.2711"}, {"measurement": "Response", "setting": "[1]; [7]", "result": "0.233 and 0.2711"}, {"measurement": "RMax", "setting": "[1]; [8]", "result": "0.335 and 0.323"}, {"measurement": "Req/Rmax(%)", "setting": "[1]; [8]", "result": 98, "unit": "%"}, {"measurement": "Response", "setting": "[1]; [8]", "result": "0.3311 and 0.323"}, {"measurement": "koff", "setting": "[1]; read-out: kdis(1/s), SPCH loaded on Anti-GST sensor, fit per sensor, Stomid Conc. (mM) 200-3.12, rep-1, rep-2", "result": 0.329, "unit": "s⁻¹"}, {"measurement": "kon", "setting": "[1]; read-out: kon(1/Ms), SPCH loaded on Anti-GST sensor, fit per sensor, Stomid Conc. (mM) 200-3.12, rep-1, rep-2", "result": 4370, "unit": "M⁻¹ s⁻¹"}, {"measurement": "stability in 1/2 MS liquid medium (LC/MS)", "setting": "[2]; pH 5.7, room temperature, 48 hours", "result": "no lzx103 peak (2.13 min) was detected"}, {"measurement": "stability in phosphate buffer (LC/MS)", "setting": "[2]; pH 7.0, room temperature, 48 h", "result": "did not detect the degradation"}]}
